Measured values as given in the supplement of paper PMC11451515.

System: NOMO1
Experiment: cell viability relative to DMSO control; higher = less cytotoxic
Conditions: 48 h
Summary of the method: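 NOMO1 or SEM cells were plated at 500 cells/well and P12-Ichikawa cells at 1000 cells/well in 1536-well plates (5 μl), after each leukemia line had been adapted for at least four passages in each medium. Pin dosing delivered library compounds in DMSO at 11 threefold concentrations, 47 μM to 0.79 nM. CellTiter-Glo One luminescence was read after 48 h at 37°C. Viability is reported as a per-plate percentage of DMSO wells, with cell-free wells as background.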

[1] = HPLM + 10% dialyzed FBS, 0.000781 µM
[2] = HPLM + 10% dialyzed FBS, 0.00234 µM
[3] = HPLM + 10% dialyzed FBS, 0.00702 µM
[4] = HPLM + 10% dialyzed FBS, 0.0211 µM
[5] = HPLM + 10% dialyzed FBS, 0.0632 µM
[6] = HPLM + 10% dialyzed FBS, 0.19 µM
[7] = HPLM + 10% dialyzed FBS, 0.569 µM
[8] = HPLM + 10% dialyzed FBS, 1.71 µM
[9] = HPLM + 10% dialyzed FBS, 5.12 µM
[10] = HPLM + 10% dialyzed FBS, 15.4 µM
[11] = HPLM + 10% dialyzed FBS, 46.1 µM
[12] = RPMI 5 mM glucose + 10% FBS, 0.000781 µM
[13] = RPMI 5 mM glucose + 10% FBS, 0.00234 µM
[14] = RPMI 5 mM glucose + 10% FBS, 0.00702 µM
[15] = RPMI 5 mM glucose + 10% FBS, 0.0211 µM
[16] = RPMI 5 mM glucose + 10% FBS, 0.0632 µM
[17] = RPMI 5 mM glucose + 10% FBS, 0.19 µM
[18] = RPMI 5 mM glucose + 10% FBS, 0.569 µM
[19] = RPMI 5 mM glucose + 10% FBS, 1.71 µM
[20] = RPMI 5 mM glucose + 10% FBS, 5.12 µM
[21] = RPMI 5 mM glucose + 10% FBS, 15.4 µM
[22] = RPMI 5 mM glucose + 10% FBS, 46.1 µM
[23] = RPMI 5 mM glucose + 10% dialyzed FBS, 0.000781 µM
[24] = RPMI 5 mM glucose + 10% dialyzed FBS, 0.00234 µM
[25] = RPMI 5 mM glucose + 10% dialyzed FBS, 0.00702 µM
[26] = RPMI 5 mM glucose + 10% dialyzed FBS, 0.0211 µM
[27] = RPMI 5 mM glucose + 10% dialyzed FBS, 0.0632 µM
[28] = RPMI 5 mM glucose + 10% dialyzed FBS, 0.19 µM
[29] = RPMI 5 mM glucose + 10% dialyzed FBS, 0.569 µM
[30] = RPMI 5 mM glucose + 10% dialyzed FBS, 1.71 µM
[31] = RPMI 5 mM glucose + 10% dialyzed FBS, 5.12 µM
[32] = RPMI 5 mM glucose + 10% dialyzed FBS, 15.4 µM
[33] = RPMI 5 mM glucose + 10% dialyzed FBS, 46.1 µM

SMILES | cell viability [1] [%] | cell viability [2] [%] | cell viability [3] [%] | cell viability [4] [%] | cell viability [5] [%] | cell viability [6] [%] | cell viability [7] [%] | cell viability [8] [%] | cell viability [9] [%] | cell viability [10] [%] | cell viability [11] [%] | cell viability [12] [%] | cell viability [13] [%] | cell viability [14] [%] | cell viability [15] [%] | cell viability [16] [%] | cell viability [17] [%] | cell viability [18] [%] | cell viability [19] [%] | cell viability [20] [%] | cell viability [21] [%] | cell viability [22] [%] | cell viability [23] [%] | cell viability [24] [%] | cell viability [25] [%] | cell viability [26] [%] | cell viability [27] [%] | cell viability [28] [%] | cell viability [29] [%] | cell viability [30] [%] | cell viability [31] [%] | cell viability [32] [%] | cell viability [33] [%]
Clc1cc(Cl)cc(CNc2ncncc2-c2ccc3c(c2)OCO3)c1 | 81.1 | 85.8 | 97.1 | 94.1 | 101 | 92.4 | 94.6 | 90.8 | 85.7 | 82.7 | 16.1 | 77.6 | 85.5 | 87.6 | 80.7 | 101 | 96.6 | 87.3 | 97.9 | 85.4 | 87.7 | 40.3 | 91.5 | 92.1 | 81.4 | 93.7 | 82 | 93.5 | 84.2 | 87.3 | 88.8 | 101 | 52.9
ClC1=CC(=CC=C1)N2CCN(CCCN3\N=C4\C=C/C=C\N4C3=O)CC2 |  |  |  |  |  |  |  |  |  |  |  | 113 | 121 | 123 | 137 | 126 | 137 | 142 | 147 | 137 | 141 | 137 |  |  |  |  |  |  |  |  |  |  | 
CCc1c(C(=O)C(N)=O)c2c(OCC(=O)O)cccc2n1Cc1ccccc1 | 113 | 105 | 94.9 | 103 | 122 | 103 | 107 | 100 | 89.4 | 90.8 | 96.5 | 92 | 105 | 91.1 | 103 | 104 | 93.1 | 89.2 | 103 | 98.2 | 100 | 92.3 | 95.3 | 103 | 105 | 101 | 105 | 86.9 | 103 | 96.6 | 96.3 | 91.6 | 92
CC(C)(C)C(=O)Oc1ccc([S+](=O)([O-])Nc2ccccc2C(=O)NCC(=O)O)cc1 | 115 | 106 | 139 | 122 | 117 | 110 | 109 | 113 | 129 | 122 | 134 | 107 | 102 | 99.7 | 98.4 | 112 | 108 | 114 | 117 | 104 | 109 | 129 | 110 | 117 | 113 | 122 | 109 | 122 | 119 | 116 | 129 | 131 | 124
CC(C)[C@@H](C[S+](=O)([O-])C(C)C)N1C(=O)[C@@](C)(CC(=O)O)C[C@H](c2cccc(Cl)c2)[C@H]1c1ccc(Cl)cc1 | 122 | 115 | 129 | 143 | 140 | 97.9 | 36.4 | 35.6 | 31.2 | 33.6 | 29.3 | 128 | 106 | 113 | 109 | 121 | 128 | 111 | 64.8 | 24.5 | 19.5 | 22.2 | 117 | 98.5 | 108 | 112 | 145 | 132 | 98.5 | 65.9 | 47.1 | 25.2 | 19.1
CN1CCC(CC1)COC2=CN=C(N=C2)C3=CC(=CC=C3)CN4/N=C(\C=C/C4=O)C5=CC(=CC=C5)C#N | 105 | 111 | 103 | 118 | 119 | 127 | 111 | 111 | 123 | 120 | 101 | 106 | 110 | 103 | 107 | 118 | 119 | 108 | 123 | 113 | 116 | 114 | 88 | 111 | 103 | 109 | 109 | 115 | 102 | 120 | 118 | 100 | 114
c1cc(CN2CCCNCCNCCCNCC2)ccc1CN1CCCNCCNCCCNCC1 | 79.6 | 109 | 100 | 30.5 | 117 | 108 | 102 | 109 | 109 | 106 | 104 | 88.4 | 85.8 | 97.8 | 18.6 | 89.2 | 105 | 86.7 | 88.4 | 85.4 | 101 | 92.5 | 89.2 | 78.2 | 83.5 | 33 | 98.3 | 93.9 | 102 | 92.7 | 91.3 | 91.4 | 93.4
CN1\C(=C(\O)C2=C(C=CS2)[S+]1([O-])=O)C(=O)NC3=CC=CC=N3 | 116 | 122 | 123 | 125 | 112 | 112 | 109 | 114 | 95.4 | 100 | 44.6 | 100 | 106 | 113 | 111 | 113 | 114 | 94.4 | 101 | 100 | 93.1 | 29.3 | 113 | 114 | 117 | 116 | 110 | 114 | 97.3 | 107 | 109 | 92.7 | 46.3
